Experimental data taken from publication PMC11050087, “Polyphenols from Maackia amurensis Heartwood Protect Neuronal Cells from Oxidative Stress and Prevent Herpetic Infection” (International Journal of Molecular Sciences, 2024).
“And” between values parts separate entries of the source, which are not always exact repeats. Equal values may be shown once. Read-outs that look alike come from different tables or passages of the source.

Experiments:
HSV-1 [1] = assay: Treatment of virus-infected cells with polyphenols, CPE inhibition assay; format: cell-based, HSV-1 strain L2
Protocol: In order to study the mechanism of action of these compounds, two additional schemes of treatment of the virus and Vero cells with polyphenols were applied: the compounds were added before virus infection (pretreatment of cells) and after penetration of the virus into host cells (treatment of infected cells). The fourth method of exposure where the virus and polyphenols were added to cells simultaneously (simultaneous treatment) was previously described by us in [22]. The anti-HSV-1 activity of polyphenols was assessed using the cytopathic effect inhibition (CPE) assay.
The monolayer of cells was infected with the virus (100 TCID50/mL) at 37 °C for 1 h, and then the cells were washed with PBS (Sigma, Saint-Louis, MO, USA) and treated with different concentrations of the studied compounds and incubated until CPE appeared.

HSV-1 [2] = tested on: HSV-1; set-up: method as in PMID 36985562; details: ref [22], cited from earlier work
[3] = tested on: 6-OHDA-treated Neuro-2a cells; assay: 6-OHDA-induced neurotoxicity model, cell viability test (MTT); format: cell-based, murine; details: compounds at 10, 1, 0.1 µM; 6-OHDA 100 µM
Protocol: Neuro-2a cells were incubated with the studied polyphenolic compounds for 1 h. Then, 100 µM of 6-hydroxydopamine 6-OHDA were added. We determined the percentage of living Neuro-2a cells after treatment with 6-OHDA (Figure 4a–d).
Figure 4 The effect of polyphenolic compounds isolated from M. amurensis heartwood on the viability of Neuro-2a cells treated with 6-OHDA (100 μM) (a–d). The viability of Neuro-2a cells treated with various compounds and 6-OHDA was measured by the MTT assay. Polyphenolic compounds isolated from M. amurensis heartwood were used at concentrations 10, 1, 0.1 μM. The data are presented as means ± SEM of three independent replicates. (*) indicate p < 0.05 versus 6-OHDA-treated cells.
After 24 h of adhesion, Neuro-2a cells (5 × 10^4 cells/mL) were treated with polyphenolic compounds at concentrations of 0.1, 1 and 10 μM for 1 h. Then, 100 µM of 6-OHDA or 1 mM of PQ (Sigma-Aldrich, St. Louis, MO, USA) were added. Cells incubated without inductors or with inductors were used as positive and negative control, respectively. Cell viability was measured after 24 h using the MTT assay.

HSV-1 [4] = assay: Virucidal activity, CPE inhibition assay (HSV-1 pretreated with compounds); format: cell-based, HSV-1 strain L2
Protocol: The antiviral activity of polyphenols from M. amurensis against HSV-1 was assessed using the cytopathic effect inhibition (CPE) assay. To study the inhibitory effect of polyphenolic compounds directly on the HSV-1 virus (direct virucidal activity), the monolayer of Vero cells grown on 96-well plates (1 × 10^4 cells/well) was infected with the virus (100 TCD50/mL), pretreated with different concentrations of polyphenolic compounds.
(§1) The HSV-1 strain L2 obtained from N.F. Gamaleya Federal Research Centre for Epidemiology and Microbiology (Moscow, Russia) was grown in Vero cells as previously described.
(§2) We determined the direct inhibitory effect of polyphenolic compounds from M. amurensis heartwood on HSV-1 (virucidal effect). We mixed the virus at an infectious dose (100 TCID50/mL) with polyphenolic compounds (from 0.1 to 100 µg/mL) at a ratio of 1:1 (v/v) and incubated for an hour at 37 °C. Then, we infected the monolayer of Vero cells grown on 96-well plates (1 × 10^4 cells/well) with HSV-1 pretreated with the studied compounds. After 1 h adsorption at 37 °C, the cells were washed with phosphate-buffered saline (PBS) and overlaid by the maintenance medium with 1% FBS. The plates were incubated for 72 h at 37 °C in a CO2-incubator. The cytopathic effect (CPE) inhibition assay and real-time reverse transcription-PCR (RT-PCR) assay were used to evaluate virucidal effect of the tested compounds.
We previously described this method in detail in [22]. We performed the MTT assay to evaluate the antiviral activity of polyphenolic compounds. The viral inhibition rate (IR, %) was calculated according to Equation (1):(1) IR, %=Atv−Acv/Acd−Acv×100, where Atv is the absorbance of cells infected with HSV-1 pretreated with the studied compounds,
We calculated the selectivity index (SI) as the ratio of CC50 to IC50. Experiments were repeated three times.

HSV-1 [5] = assay: Virucidal activity, RT-PCR assay (HSV-1 pretreated with compounds); format: cell-based, HSV-1 strain L2; details: for Ct: 72 h; for −ΔCt: vs virus control
Protocol: Vero cells grown on 96-well plates were infected with the virus (100 TCID50/mL), pretreated with polyphenolic compounds at concentrations 0.1, 1 and 10 μg/mL. After 72 h of cell incubation, viral DNA was extracted from the supernatants, and the relative level of HSV-1 DNA was determined using RT-PCR. The effect of polyphenols on the relative level of viral DNA was assessed using the 2^−∆Ct method and reported as fold reduction compared to virus control.
as §1, §2
We performed the RT-PCR assay as we previously described in detail in [22]. Briefly, HSV-1 DNA was extracted after incubation from cell supernatants by using the DNA-sorb-AM (K1-12-100-CE) nucleic acid extraction kit (AmpliSens®, Moscow, Russia) according to the manufacturer′s instructions. We treated the supernatants with a lysis solution that contained guanidine chloride (chaotropic agent) in the presence of sorbent (silica particles). As the elution solution was added, the DNA was […] silica particles and separated from the sorbent particles by centrifugation.
We detected the DNA of HSV-1 in the obtained samples using the AmpliSens® HSV I, II-FRT-100F PCR kit (AmpliSens®, Moscow, Russia) on a real-time PCR instrument Rotor-Gene Q (Qiagen, Hilden, Nordrhein-Westfalen, Germany) according to the manufacturer′s instructions. The PCR reaction conditions were the following: initial denaturation at 95 °C for 15 min; then 5 cycles at 95 °C for 5 s, at 60 °C for 20 s, at 72 °C for 15 s; then 40 cycles at 95 °C for 5 s, at 60 °C for 20 s, and at 72 °C for 15 s. A negative sample was used as the amplification control for each run. The threshold cycle number Ct, was measured as the PCR cycle, where the amount of the amplified target reached the threshold value; the Ct values ≥ 37 indicated the absence of the HSV-1 DNA in the samples. We assessed the anti-HSV-1 activity of the studied compounds by the reduction in the viral DNA levels using the 2^−ΔCt method according to Equation (2):(2) ΔCt=Ctcv−Cttv where Ct is the threshold cycle number measured as the PCR cycle, where the amount of the amplified target reached the threshold value, […]

[6] = Cytotoxicity against Vero cells (MTT assay); format: cell-based; details: African green monkey
Protocol: We prepared the stock solutions of the tested compounds (10 mg/mL) in DMSO (Sigma, St. Louis, MO, USA). For the MTT assay and further studies of anti-HSV-1 activity, we diluted the stock solutions with DMEM so that the final concentration of DMSO was 0.5%.
We used MTT assay to determine the cytotoxic effect of the tested compounds against Vero cells. We performed the MTT assay as previously described.

[7] = Human alphaherpesvirus 1, 72 h, read-out: 2^−ΔCt
[8] = Human alphaherpesvirus 1, 72 h, read-out: log10

Which IC50 (HSV-1 [1]; Human alphaherpesvirus 1, compound added after virus adsorption and penetration, CPE assay) does the source give for `Nc1nc2c(ncn2COCCO)c(=O)[nH]1` [Acyclovir, reference compound] here?
Its IC50 is 0.4 µg/mL and 1.8 µM.

And the “Treatment of Infected Cells SI” value (HSV-1 [1]; ratio of CC50 to IC50)?
The value was >2500.

And the “Simultaneous Treatment SI” value (HSV-1 [2]; ratio of CC50 to IC50)?
Its value is 430.

What about the “Simultaneous Treatment IC50” value (HSV-1 [2]; virus and compound added to cells simultaneously, CPE assay) of the same compound?
Its value is 2.1 ± 0.3 µg/mL.

What about the IC50 (HSV-1 [2]; virus and compound added to cells simultaneously, CPE assay, read-out: Simultaneous Treatment IC50) of the same compound?
The IC50 was 9.3 ± 1.3 µM.

Which results are given for `Oc1ccc2c(c1)OC[C@H]1c3cc4c(cc3O[C@@H]21)OCO4` [Compound 4, maackiain]?
effect on viability of 6-OHDA-treated Neuro-2a cells (in words) [3]: weak effect on cell viability; IC50 (HSV-1 [4]; Human alphaherpesvirus 1, virus pretreated with compound (virucidal), CPE assay, Vero cells, 100 TCID50/mL): 28.3 µg/mL and 99.6 µM; SI (HSV-1 [4]; ratio of CC50 to IC50, virucidal scheme): 5.4 and 5.4 ± 0.7; Ct (HSV-1 [5]; 0.1 µg/mL): 18.1 ± 2.2; −ΔCt (HSV-1 [5]; 0.1 µg/mL): 0; Ct (HSV-1 [5]; 1 µg/mL): 19.0 ± 2.1; −ΔCt (HSV-1 [5]; 1 µg/mL): −0.9 ± 0.1; anti-HSV-1 activity by RT-PCR (in words) (HSV-1 [5]; 10 µg/mL): moderate anti-HSV-1 activity; Ct (HSV-1 [5]; 10 µg/mL): 20.7 ± 2.3; −ΔCt (HSV-1 [5]; 10 µg/mL): −2.6 ± 0.3; activity at 0.1 µg/mL (HSV-1 [5]; [7]): 100%; activity at 1 µg/mL (HSV-1 [5]; [7]): 53.6 ± 6.4%; activity at 10 µg/mL (HSV-1 [5]; [7]): 16.5 ± 2.1%; log reduction at 0.1 µg/mL (HSV-1 [5]; [8]): 0; log reduction at 1 µg/mL (HSV-1 [5]; [8]): 0.3 ± 0.04; log reduction at 10 µg/mL (HSV-1 [5]; [8]): 0.8 ± 0.1; CC50 [6]: 152 µg/mL and 536 µM
